Where “and” joins values, the source holds several entries; their conditions need not be identical. Equal entries are not always repeated. Where two headings read alike, the source gives them in different places. Ends that are not written are not given here.
Experiments:
TRPR [1] = system: TRPR
TRPR [2] = system: TRPR; remark: listed apart in the source
[3] = system: TRP2-mediated cAMP accumulation; assay: Effect of PTX, CTX, YM-254890 and H89 on TRP2-mediated cAMP accumulation, HEK293 cells expressing TRPR; format: cell-based, Homo sapiens
[4] = system: TRP2-induced ERK1/2 phosphorylation; assay: Effect of inhibitors on TRP2-induced ERK1/2 phosphorylation, HEK293 cells; format: cell-based, Homo sapiens
[5] = system: TRP2-induced ERK1/2 phosphorylation; assay: Effect of inhibitors on TRP2-induced ERK1/2 phosphorylation, Sf21 cells; format: cell-based, Spodoptera frugiperda
honeybee TRPR [6] = assay: Competitive binding of TRPs to TRPR in Sf21 cells (displacement of TAMRA-TRP2/TAMRA-TRP3); set-up: species or system Apis mellifera
TRPR [7] = system: TRPR; remark: listed apart in the source
honeybee TRPR [8] = assay: Competitive binding of TRPs to TRPR in HEK293 cells (displacement of TAMRA-TRP2/TAMRA-TRP3); set-up: species or system Apis mellifera; conditions: HEK293
[9] = target: honeybee tachykinin-related peptide receptor (FLAG-TRPR) expressed in HEK293 cells (Apis mellifera)
[10] = target: honeybee tachykinin-related peptide receptor (FLAG-TRPR) expressed in Sf21 cells (Apis mellifera)
[11] = target: honeybee tachykinin-related peptide receptor (FLAG-TRPR) expressed in HEK293 cells (Apis mellifera); remark: listed apart in the source
[12] = HEK293, 2 hr pretreatment, then TRP2 (10 nM or 1 μM) for 10 min
[13] = Sf21, 2 hr pretreatment, then TRP2 (10 nM or 1 μM) for 10 min

honeybee tachykinin-related peptide receptor (FLAG-TRPR) expressed in HEK293 cells (Apis mellifera), sequence (A0ACM8RFV8 entry or part of it): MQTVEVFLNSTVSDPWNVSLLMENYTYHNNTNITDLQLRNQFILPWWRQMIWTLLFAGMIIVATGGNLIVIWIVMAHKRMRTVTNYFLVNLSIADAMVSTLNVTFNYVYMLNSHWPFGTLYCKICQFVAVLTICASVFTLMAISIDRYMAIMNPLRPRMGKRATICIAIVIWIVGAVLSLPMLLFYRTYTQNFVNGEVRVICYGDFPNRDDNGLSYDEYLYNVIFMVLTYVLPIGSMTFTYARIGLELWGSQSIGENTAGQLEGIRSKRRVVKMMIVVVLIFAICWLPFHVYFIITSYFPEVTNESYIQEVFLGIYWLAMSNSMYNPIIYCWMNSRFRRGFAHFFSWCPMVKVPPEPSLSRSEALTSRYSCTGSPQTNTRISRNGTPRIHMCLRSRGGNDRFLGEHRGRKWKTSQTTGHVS
honeybee tachykinin-related peptide receptor (FLAG-TRPR) expressed in Sf21 cells (Apis mellifera), sequence (A0ACM8RFV8 entry or part of it): as above

Q: For corazonin [CRZ, reference compound], which “cAMP accumulation” value (TRPR [1]) is on record?
A: did not induce any detectable cAMP accumulation

Q: What about the “cAMP accumulation” value (TRPR [2]) of the same molecule?
A: did not induce any detectable cAMP accumulation

Q: What does the source list for “short neuropeptide F [SNF, reference compound]”?
A: cAMP accumulation (TRPR [1]): did not induce any detectable cAMP accumulation; cAMP accumulation (TRPR [2]): did not induce any detectable cAMP accumulation

Q: Which cAMP accumulation [3] does the source give for cholera toxin [CTX] here?
A: 18.981 and 16.723 and 16.035 and 22.197 and 20.493 and 23.072

Q: For `Cl.Cl.O=S(=O)(NCCNC/C=C/c1ccc(Br)cc1)c1cccc2cnccc12` [H89], which “inhibition of TRP/TRPR-mediated ERK activation” value [4, 12] is on record?
A: significant inhibition

Q: What about the “inhibition of TRP/TRPR-mediated ERK activation” value [5, 13] of the same molecule?
A: significant inhibition

Q: What about the cAMP accumulation ([3]; Suppl.3B, with TRP2, replicate 1) of the same molecule?
A: 18.636

Q: And the cAMP accumulation ([3]; Suppl.3B, with TRP2, replicate 2)?
A: 15.003

Q: And the cAMP accumulation ([3]; Suppl.3B, with TRP2, replicate 3)?
A: 13.325

Q: And the cAMP accumulation ([3]; Suppl.3B, with ddH2O (no TRP2), replicate 1)?
A: 3.551

Q: And the cAMP accumulation ([3]; Suppl.3B, with ddH2O (no TRP2), replicate 2)?
A: 2.309

Q: What about the cAMP accumulation ([3]; Suppl.3B, with ddH2O (no TRP2), replicate 3) of the same molecule?
A: 2.639

Q: For “pigment-dispersing hormone [PDH, reference compound]”, which “cAMP accumulation” value (TRPR [1]) is on record?
A: did not induce any detectable cAMP accumulation

Q: And the “cAMP accumulation” value (TRPR [2])?
A: did not induce any detectable cAMP accumulation

Q: How did the “inhibition of TRP/TRPR-mediated ERK activation” value [4, 12] turn out when `COc1ccc2c(c1)c(C1=C(c3c[nH]c4ccccc34)C(=O)NC1=O)cn2CCCN(C)C` [Go6983] was run?
A: significant inhibition

Q: And the “inhibition of TRP/TRPR-mediated ERK activation” value [5, 13]?
A: significant inhibition

Q: `N#CC(=C(/N)Sc1ccccc1N)/C(C#N)=C(/N)Sc1ccccc1N` [U0126] was tested. Which “inhibition of TRP/TRPR-mediated ERK activation” value [4, 12] did it give?
A: significant inhibition

Q: What about the “inhibition of TRP/TRPR-mediated ERK activation” value [5, 13] of the same molecule?
A: significant inhibition

Q: How did the competitive binding (honeybee TRPR [6]; Log (M) -4, replicate 1) turn out when “APMGFQGMRa [TRP3, honeybee tachykinin-related peptide 3, synthesized by SynPeptide]” was run?
A: 26.3879

Q: What about the competitive binding (honeybee TRPR [6]; Log (M) -4, replicate 2) of the same molecule?
A: 30.2236

Q: What about the competitive binding (honeybee TRPR [6]; Log (M) -4, replicate 3) of the same molecule?
A: 35.2235

Q: What about the competitive binding (honeybee TRPR [6]; Log (M) -5, replicate 1) of the same molecule?
A: 39.1647

Q: What about the competitive binding (honeybee TRPR [6]; Log (M) -5, replicate 2) of the same molecule?
A: 34.4531

Q: What about the competitive binding (honeybee TRPR [6]; Log (M) -5, replicate 3) of the same molecule?
A: 41.6285

Q: What about the competitive binding (honeybee TRPR [6]; Log (M) -6, replicate 1) of the same molecule?
A: 40.2510

Q: What about the competitive binding (honeybee TRPR [6]; Log (M) -6, replicate 2) of the same molecule?
A: 48.0008

Q: And the competitive binding (honeybee TRPR [6]; Log (M) -6, replicate 3)?
A: 38.3975

Q: What about the competitive binding (honeybee TRPR [6]; Log (M) -7, replicate 1) of the same molecule?
A: 53.7851

Q: What about the competitive binding (honeybee TRPR [6]; Log (M) -7, replicate 2) of the same molecule?
A: 58.0646

Q: And the competitive binding (honeybee TRPR [6]; Log (M) -7, replicate 3)?
A: 56.8212

Q: What about the competitive binding (honeybee TRPR [6]; Log (M) -8, replicate 1) of the same molecule?
A: 73.9138

Q: What about the competitive binding (honeybee TRPR [6]; Log (M) -8, replicate 2) of the same molecule?
A: 70.3389

Q: What about the competitive binding (honeybee TRPR [6]; Log (M) -8, replicate 3) of the same molecule?
A: 76.0795

Q: And the competitive binding (honeybee TRPR [6]; Log (M) -9, replicate 1)?
A: 79.8334

Q: What about the competitive binding (honeybee TRPR [6]; Log (M) -9, replicate 2) of the same molecule?
A: 84.1204

Q: What about the competitive binding (honeybee TRPR [6]; Log (M) -9, replicate 3) of the same molecule?
A: 84.2025

Q: What about the competitive binding (honeybee TRPR [6]; Log (M) -10, replicate 1) of the same molecule?
A: 93.5892

Q: What about the competitive binding (honeybee TRPR [6]; Log (M) -10, replicate 2) of the same molecule?
A: 92.3234

Q: What about the competitive binding (honeybee TRPR [6]; Log (M) -10, replicate 3) of the same molecule?
A: 96.9419

Q: And the competitive binding (honeybee TRPR [6]; Log (M) -11, replicate 1)?
A: 93.4444

Q: And the competitive binding (honeybee TRPR [6]; Log (M) -11, replicate 2)?
A: 100.0000

Q: What about the competitive binding (honeybee TRPR [6]; Log (M) -11, replicate 3) of the same molecule?
A: 96.2965

Q: What about the competitive binding (honeybee TRPR [6]; Log (M) -12, replicate 1) of the same molecule?
A: 95.2946

Q: What about the competitive binding (honeybee TRPR [6]; Log (M) -12, replicate 2) of the same molecule?
A: 98.1256

Q: And the competitive binding (honeybee TRPR [6]; Log (M) -12, replicate 3)?
A: 92.1545

Q: And the “increase of cAMP levels” value (TRPR [2])?
A: more than 10 fold

Q: And the “intracellular Ca2+ levels” value (TRPR [7])?
A: rose sharply

Q: What about the “competitive binding (residual TAMRA-TRP binding)” value (honeybee TRPR [8]; Log (M) -4, replicate 1) of the same molecule?
A: 5.1560

Q: And the “competitive binding (residual TAMRA-TRP binding)” value (honeybee TRPR [8]; Log (M) -4, replicate 2)?
A: 4.9306

Q: What about the “competitive binding (residual TAMRA-TRP binding)” value (honeybee TRPR [8]; Log (M) -4, replicate 3) of the same molecule?
A: 5.6578

Q: And the “competitive binding (residual TAMRA-TRP binding)” value (honeybee TRPR [8]; Log (M) -5, replicate 1)?
A: 9.5134

Q: And the “competitive binding (residual TAMRA-TRP binding)” value (honeybee TRPR [8]; Log (M) -5, replicate 2)?
A: 5.2301

Q: And the “competitive binding (residual TAMRA-TRP binding)” value (honeybee TRPR [8]; Log (M) -5, replicate 3)?
A: 6.7532

Q: And the “competitive binding (residual TAMRA-TRP binding)” value (honeybee TRPR [8]; Log (M) -6, replicate 1)?
A: 19.3191

Q: What about the “competitive binding (residual TAMRA-TRP binding)” value (honeybee TRPR [8]; Log (M) -6, replicate 2) of the same molecule?
A: 12.3643

Q: What about the “competitive binding (residual TAMRA-TRP binding)” value (honeybee TRPR [8]; Log (M) -6, replicate 3) of the same molecule?
A: 13.3614

Q: What about the “competitive binding (residual TAMRA-TRP binding)” value (honeybee TRPR [8]; Log (M) -7, replicate 1) of the same molecule?
A: 23.7138

Q: What about the “competitive binding (residual TAMRA-TRP binding)” value (honeybee TRPR [8]; Log (M) -7, replicate 2) of the same molecule?
A: 20.6042

Q: What about the “competitive binding (residual TAMRA-TRP binding)” value (honeybee TRPR [8]; Log (M) -7, replicate 3) of the same molecule?
A: 26.4738

Q: And the “competitive binding (residual TAMRA-TRP binding)” value (honeybee TRPR [8]; Log (M) -8, replicate 1)?
A: 49.0125

Q: What about the “competitive binding (residual TAMRA-TRP binding)” value (honeybee TRPR [8]; Log (M) -8, replicate 2) of the same molecule?
A: 48.4899

Q: And the “competitive binding (residual TAMRA-TRP binding)” value (honeybee TRPR [8]; Log (M) -8, replicate 3)?
A: 40.9813

Q: And the “competitive binding (residual TAMRA-TRP binding)” value (honeybee TRPR [8]; Log (M) -9, replicate 1)?
A: 72.5758

Q: And the “competitive binding (residual TAMRA-TRP binding)” value (honeybee TRPR [8]; Log (M) -9, replicate 2)?
A: 73.4731

Q: And the “competitive binding (residual TAMRA-TRP binding)” value (honeybee TRPR [8]; Log (M) -9, replicate 3)?
A: 66.5477

Q: What about the “competitive binding (residual TAMRA-TRP binding)” value (honeybee TRPR [8]; Log (M) -10, replicate 1) of the same molecule?
A: 84.1720

Q: What about the “competitive binding (residual TAMRA-TRP binding)” value (honeybee TRPR [8]; Log (M) -10, replicate 2) of the same molecule?
A: 90.8395

Q: What about the “competitive binding (residual TAMRA-TRP binding)” value (honeybee TRPR [8]; Log (M) -10, replicate 3) of the same molecule?
A: 88.1290

Q: What about the “competitive binding (residual TAMRA-TRP binding)” value (honeybee TRPR [8]; Log (M) -11, replicate 1) of the same molecule?
A: 92.0860

Q: What about the “competitive binding (residual TAMRA-TRP binding)” value (honeybee TRPR [8]; Log (M) -11, replicate 2) of the same molecule?
A: 97.3869

Q: And the “competitive binding (residual TAMRA-TRP binding)” value (honeybee TRPR [8]; Log (M) -11, replicate 3)?
A: 95.5950

Q: And the “competitive binding (residual TAMRA-TRP binding)” value (honeybee TRPR [8]; Log (M) -12, replicate 1)?
A: 93.1313

Q: And the “competitive binding (residual TAMRA-TRP binding)” value (honeybee TRPR [8]; Log (M) -12, replicate 2)?
A: 100.0000

Q: And the “competitive binding (residual TAMRA-TRP binding)” value (honeybee TRPR [8]; Log (M) -12, replicate 3)?
A: 92.9969

Q: Which results are given for pertussis toxin [PTX]?
A: inhibition of TRP/TRPR-mediated ERK activation [4]: had no effect; inhibition of TRP/TRPR-mediated ERK activation [5]: had no effect

Q: How did the luciferase activity (pCRE-Luc reporter of cAMP) of HEK293 cells co-transfected with pFLAG-TRPR, 1 μM TRP2, against vehicle vector [9] turn out when ALMGFQGVR (ends and bridges not checked) [tachykinin-related peptide 2 (TRP2), unlabeled synthetic peptide] was run?
A: > 10 fold

Q: What about the EC50 of ERK1/2 phosphorylation (Western blot) in Sf21 cells expressing TRPR, TRP2 from 0.1 pM to 1 μM for 10 min [10] of the same molecule?
A: 1.68 nM

Q: What about the EC50 of ERK1/2 phosphorylation (Western blot) in HEK293 cells expressing TRPR, TRP2 from 0.1 pM to 1 μM for 10 min [11] of the same molecule?
A: 68 nM

Q: How did the luciferase activity (pCRE-Luc reporter of cAMP) of HEK293 cells co-transfected with pFLAG-TRPR, 1 μM TRP3, against vehicle vector [9] turn out when APMGFQGMR-NH2 [tachykinin-related peptide 3 (TRP3), unlabeled synthetic peptide] was run?
A: > 10 fold
